Assay: Storage stability of crystalline forms at room temperature for two years (form by XRD)
Format: physicochemical
Conditions: for Crystal form after 2 years: 1 g sample in closed glass bottle, room temperature, form by XRD, monosodium salt
Protocol: The x-ray powder diffraction was performed on Scintag X-ray powder diffractometer model X'TRA with a solid state detector at room temperature. Copper radiation of 1.5418 Å was used. The sample holder was a round standard aluminum sample holder with rough zero background. The scanning parameters were range: 2-40 degrees two-theta; scan mode: continuous scan; step size: 0.05 degrees; and at a rate of 5 degrees/minute.
1 g samples of crystalline ibandronate sodium Forms K1, D, J, H, E, Q2, QQ, K3, Q4, L, G, C, S, R, Q3, K, and Q6, as well as amorphous form were each placed into separate glass bottles, which were then closed and stored at room temperature for 2 years.

Structure (SMILES) | Crystal form after 2 years | Stability of crystalline form on storage (about 15° C. to about 30° C. for more than about 3 months, as described in Example 7) | Retention of crystalline form after storage (room temperature for two years) | Crystal form after 2 years (listed as H)
CCCCCN(C)CCC(O)(P(=O)([O-])O)P(=O)(O)O.[Na+] [Form C, (1-hydroxy-3-(N-methyl-N-pentylamino)propylidene) bisphosphonic acid monosodium salt] | Form V |  |  | 
CCCCCN(C)CCC(O)(P(=O)([O-])O)P(=O)(O)O.[Na+] [Form D, (1-hydroxy-3-(N-methyl-N-pentylamino)propylidene) bisphosphonic acid monosodium salt] |  | stable | maintained their crystalline form | 
CCCCCN(C)CCC(O)(P(=O)([O-])O)P(=O)(O)O.[Na+] [Form H, (1-hydroxy-3-(N-methyl-N-pentylamino)propylidene) bisphosphonic acid monosodium salt] | mixture of crystalline ibandronate sodium Forms H and V |  |  | H + V
CCCCCN(C)CCC(O)(P(=O)([O-])O)P(=O)(O)O.[Na+] [Form S, (1-hydroxy-3-(N-methyl-N-pentylamino)propylidene) bisphosphonic acid monosodium salt] | Q plus additional XRD reflections at 10.4, |  |  | 
